The text below walks through data of ChEMBL document CHEMBL1129684, “New steroidal diazo ketones as potential photoaffinity labeling reagents for the mineralocorticoid receptor: synthesis and biological activities” (J Med Chem, 1996).

A word on the IC50: it is the concentration needed to halve the response being measured. Read a low IC50 as inhibition by little substance.

Test [1] deals with T1, Mineralocorticoid receptor (Homo sapiens) (UniProt P08235).
T1 sequence (whole entry): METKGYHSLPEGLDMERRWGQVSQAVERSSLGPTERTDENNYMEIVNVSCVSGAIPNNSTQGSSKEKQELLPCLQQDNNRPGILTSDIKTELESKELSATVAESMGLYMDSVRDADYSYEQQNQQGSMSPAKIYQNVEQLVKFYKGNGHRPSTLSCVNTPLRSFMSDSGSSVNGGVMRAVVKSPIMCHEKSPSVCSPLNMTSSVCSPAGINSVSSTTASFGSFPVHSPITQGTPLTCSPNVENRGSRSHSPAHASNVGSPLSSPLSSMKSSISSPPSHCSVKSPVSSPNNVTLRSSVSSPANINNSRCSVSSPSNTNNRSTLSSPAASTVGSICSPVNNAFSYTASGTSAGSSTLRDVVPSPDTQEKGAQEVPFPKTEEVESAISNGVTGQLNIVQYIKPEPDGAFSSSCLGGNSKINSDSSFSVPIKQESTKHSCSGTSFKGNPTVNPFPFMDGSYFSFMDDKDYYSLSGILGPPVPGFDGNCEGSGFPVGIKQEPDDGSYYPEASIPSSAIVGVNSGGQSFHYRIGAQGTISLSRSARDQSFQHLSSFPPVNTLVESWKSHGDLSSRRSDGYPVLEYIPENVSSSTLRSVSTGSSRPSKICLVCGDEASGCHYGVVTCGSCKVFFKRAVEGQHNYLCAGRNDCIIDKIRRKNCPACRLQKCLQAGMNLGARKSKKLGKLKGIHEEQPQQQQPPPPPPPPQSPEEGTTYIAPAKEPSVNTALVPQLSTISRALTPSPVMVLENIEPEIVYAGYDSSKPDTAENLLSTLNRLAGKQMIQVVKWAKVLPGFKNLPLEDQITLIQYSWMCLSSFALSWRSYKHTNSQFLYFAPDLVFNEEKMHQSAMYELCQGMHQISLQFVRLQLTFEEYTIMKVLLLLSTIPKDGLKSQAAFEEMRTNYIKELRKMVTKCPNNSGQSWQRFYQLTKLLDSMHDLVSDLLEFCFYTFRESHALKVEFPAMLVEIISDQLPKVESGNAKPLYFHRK
The note with it: CV-1.
Description: Transcriptional activation activity in CV-1 cells expressing mineralocorticoid receptor

The target in test [2] is T2, Mineralocorticoid receptor (Homo sapiens, UniProt P08235).
T2 sequence (P08235 whole entry): T1 sequence (whole entry)
Description: Affinity for recombinant Mineralocorticoid receptor. The note with it: read-out: Kd app.

Test [3] deals with T2, Mineralocorticoid receptor. Briefly: Inhibition of 10e-9 M aldosterone activity in CV-1 cells expressing mineralocorticoid receptor. Format: functional, cell-based.

Regarding `CC12CCC(=O)C=C1CCC1C2CCC2(C)C(C(=O)C=[N+]=[N-])CCC12` (stereo unspecified), the ED50 in test [1] was 6 nM. Also, the Kd in test [2] is 0.74 nM.

Molecule `CC(=O)C1CC[C@H]2[C@@H]3CCC4=CC(=O)CCC4(C)[C@H]3CCC12C(=O)[CH-][N+]#N` (stereo partly specified) had a half-maximal inhibitory concentration (IC50) in test [3] of 700 nM. For the same molecule, the Kd in test [2] is 20 nM.

On to `C[C@@H](O)C1CC[C@H]2[C@@H]3CCC4=CC(=O)CCC4(C)[C@H]3CCC12C(=O)C=[N+]=[N-]` (stereo partly specified), for which, in test [3], it took 900 nM to reach half-maximal inhibition (IC50). For the same molecule, the Kd in test [2] stood at 20 nM.
